{"source": "patent US20140349923A1", "about": "“Compositions And Methods For Treating Diabetes And/Or Obesity” (GlaxoSmithKline Intellectual Property (No. 2) Limited, priority 2012, published 2014)", "experiment": "Chronic obesity efficacy study in DIO mice, chow ingredients with or without exendin-4 AlbudAb", "format": "in vivo, DIO C57BL/6 mice", "procedure": "Male diet induced obese (DIO) C57BL/6 mice (40-50 g body weight) and lean C57BL/6 mice (Taconic, Hudson, N.Y.) were used for the chronic obesity efficacy studies. The DIO mice were group housed and fed a high fat diet (60% fat by kcal) by the vendor from the time of weaning. Upon receipt at the GlaxoSmithKline Research Triangle Park facility, all mice were single-housed and maintained at constant temperature (approximately 22° C.) with 12 hr light/dark cycle (lights on from 5:00 AM to 5:00 PM). The mice were given ad libitum access to food (Research Diets D12451, 45 kcal % fat for DIO; Lab Diet 5001, 13.5 kcal % fat for lean) and water. All animal protocols were approved by the institutional animal care and use committee at GlaxoSmithKline in Research Triangle Park, N.C. The BCE, OFS, pectin, oleic acid, Nutella containing chows were prepared by mixing in a Hobart mixer with a whisk attachment and stored at 4° C. until used. Chows were fed to mice in glass jars with wire mesh column inserts (Unifab Corp., Kalamazoo, Mich.). […] All combination then were evaluated with and without co-treatment with exendin-4-albudAb. […] Body weights (BW) were measured on day −7 and then every 3 to 4 days for the duration of the study. On day 24, body composition was measured using quantitative magnetic resonance (QMR). […]", "data": [{"compound": "CCCCCCCC/C=C\\CCCCCCCC(=O)O", "note": "[oleic acid]", "values": [{"measurement": "weight loss (% change in body weight)", "setting": "26 days", "value": "−4.3", "unit": "%"}, {"measurement": "effect on weight compared to vehicle", "setting": "Student's t-test", "value": "statistically significant weight loss"}]}]}
